# Test results taken from ChEMBL document CHEMBL1124014, “Synthesis of (aryloxy)alkylamines. 2. Novel imidazo-fused heterocycles with calcium channel blocking and local anesthetic activity” (J Med Chem, 1988).
# pIC50: −log10 of the molar value. Calls of active or inactive are those of the source. The calls are words filed in the database; no cut-off is given here.
# Assays:
# Mus musculus [1] = assay: Concentration causing local anesthetic activity in mice; type: functional, organism-based
# [2] = molecular target: T1, Voltage-dependent L-type calcium channel subunit alpha-1C (Oryctolagus cuniculus, UniProt P15381); assay: Inhibition of [3H]nitrendipine binding to calcium channels of rabbit cardiac muscle at 10 uM; type: functional, tissue-based, Muscle tissue; settings: probe [3H]nitrendipine
# T1 sequence (P15381 whole entry): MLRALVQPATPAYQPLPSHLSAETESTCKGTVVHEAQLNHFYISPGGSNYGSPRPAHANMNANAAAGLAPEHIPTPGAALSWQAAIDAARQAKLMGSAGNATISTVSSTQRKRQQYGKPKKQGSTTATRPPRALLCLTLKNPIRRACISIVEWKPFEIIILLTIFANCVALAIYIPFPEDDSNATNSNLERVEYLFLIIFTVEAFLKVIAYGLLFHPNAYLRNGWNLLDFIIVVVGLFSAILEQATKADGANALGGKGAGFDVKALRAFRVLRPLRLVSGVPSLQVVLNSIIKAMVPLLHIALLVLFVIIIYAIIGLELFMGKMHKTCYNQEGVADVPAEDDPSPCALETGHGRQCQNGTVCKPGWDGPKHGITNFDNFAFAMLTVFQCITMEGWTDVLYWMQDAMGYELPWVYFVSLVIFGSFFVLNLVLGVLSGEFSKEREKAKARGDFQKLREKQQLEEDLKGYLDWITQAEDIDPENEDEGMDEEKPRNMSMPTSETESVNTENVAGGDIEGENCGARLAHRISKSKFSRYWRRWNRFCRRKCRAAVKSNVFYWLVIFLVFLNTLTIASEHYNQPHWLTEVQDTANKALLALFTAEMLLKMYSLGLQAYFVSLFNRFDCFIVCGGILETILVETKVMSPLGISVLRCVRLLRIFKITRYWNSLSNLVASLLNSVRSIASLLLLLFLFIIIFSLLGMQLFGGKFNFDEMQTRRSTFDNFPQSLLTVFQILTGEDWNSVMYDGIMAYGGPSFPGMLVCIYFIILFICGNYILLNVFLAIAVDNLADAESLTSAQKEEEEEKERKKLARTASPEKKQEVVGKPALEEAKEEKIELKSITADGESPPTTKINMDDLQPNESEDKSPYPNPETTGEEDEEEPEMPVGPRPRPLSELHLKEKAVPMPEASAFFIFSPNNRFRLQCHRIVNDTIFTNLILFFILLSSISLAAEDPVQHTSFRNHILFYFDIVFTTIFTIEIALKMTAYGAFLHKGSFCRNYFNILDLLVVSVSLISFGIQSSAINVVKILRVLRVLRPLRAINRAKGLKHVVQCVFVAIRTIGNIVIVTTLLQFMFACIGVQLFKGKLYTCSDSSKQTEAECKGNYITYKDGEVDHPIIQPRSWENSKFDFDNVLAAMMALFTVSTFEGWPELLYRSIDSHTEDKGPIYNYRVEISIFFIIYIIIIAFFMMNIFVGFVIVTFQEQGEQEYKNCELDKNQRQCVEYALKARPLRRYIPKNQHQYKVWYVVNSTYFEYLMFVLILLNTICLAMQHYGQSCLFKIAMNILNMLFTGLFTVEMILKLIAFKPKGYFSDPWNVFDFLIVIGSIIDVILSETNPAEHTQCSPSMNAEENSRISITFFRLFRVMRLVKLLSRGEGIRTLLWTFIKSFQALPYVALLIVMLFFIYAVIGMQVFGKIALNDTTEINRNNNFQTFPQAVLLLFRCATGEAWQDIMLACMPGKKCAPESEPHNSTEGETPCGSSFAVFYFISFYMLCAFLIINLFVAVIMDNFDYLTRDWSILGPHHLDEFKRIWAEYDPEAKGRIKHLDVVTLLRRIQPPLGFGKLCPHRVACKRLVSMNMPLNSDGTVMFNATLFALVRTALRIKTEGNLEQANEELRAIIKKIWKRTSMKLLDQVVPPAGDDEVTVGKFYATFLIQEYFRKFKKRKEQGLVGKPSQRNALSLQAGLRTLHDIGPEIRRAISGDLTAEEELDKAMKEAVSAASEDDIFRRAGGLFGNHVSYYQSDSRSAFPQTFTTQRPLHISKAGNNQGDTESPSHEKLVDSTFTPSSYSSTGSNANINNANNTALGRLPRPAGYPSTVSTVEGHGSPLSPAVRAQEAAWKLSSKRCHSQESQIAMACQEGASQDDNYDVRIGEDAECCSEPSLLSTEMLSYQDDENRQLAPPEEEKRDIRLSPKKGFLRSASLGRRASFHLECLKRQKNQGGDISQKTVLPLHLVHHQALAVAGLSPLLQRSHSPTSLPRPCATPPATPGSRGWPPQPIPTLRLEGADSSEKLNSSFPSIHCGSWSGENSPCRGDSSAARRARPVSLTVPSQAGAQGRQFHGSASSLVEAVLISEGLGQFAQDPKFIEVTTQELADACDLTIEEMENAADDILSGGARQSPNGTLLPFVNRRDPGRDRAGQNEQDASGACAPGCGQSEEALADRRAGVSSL
# Canis familiaris = organism: Canis familiaris; assay: Percent inhibition of calcium-dependent potassium-polarized smooth muscle contraction in canine trachea; type: functional, Canis lupus familiaris, Muscle tissue
# [3] = molecular target: T1, Voltage-dependent L-type calcium channel subunit alpha-1C; assay: Inhibition of [3H]nitrendipine binding to calcium channels in Rabbit cardiac muscle.; type: tissue-based, Muscle tissue
# Mus musculus [4] = assay: Concentration causing local anesthetic activity in mice; inactive; type: functional, organism-based
# [5] = Inhibition of [3H]nitrendipine binding to calcium channels of rabbit cardiac muscle at 68 uM; type: functional; settings: Oryctolagus cuniculus, Muscle tissue
SMILES,Concentration (Mus musculus [1]),further results
Cc1cccn2cc(-c3ccc(OCCCN(C)C)cc3)nc12,1%,
CCCCN(CCCC)CCCOc1ccc(-c2cn3cccc(OCc4ccccc4)c3n2)cc1,0.1%,inhibition at 10 µM [2]: 45%
CCCCN(CCCC)CCCOc1ccc(-c2nc3sccn3c2C)cc1,0.1%,
CCCCN(CCCC)CCCOc1ccc(-c2cn3ccccc3n2)cc1.Cl,0.1%,Inhibition (Canis familiaris): 5.4%
CCCCN(CCCC)CCCOc1ccc(-c2cn3cccc(C)c3n2)c(C)c1,0.1%,
CC(C)COCC(CN(Cc1ccccc1)c1ccccc1)N1CCCC1 (stereo not drawn) [BEPRIDIL],,Inhibition (Canis familiaris): 81%; pIC50 [3]: 4.66
CCCCN(CCCC)CCCOc1ccc(-c2cn3cc(Br)ccc3n2)cc1,1%,
CCCCN(CCCC)CCCOc1ccc(-c2cn3cccc([N+](=O)[O-])c3n2)cc1,> 1%,
CCCCN(CCCC)CCCOc1ccc(-c2cn3cccc(O)c3n2)cc1,0.1%,
CCCCN(CCCC)CCCOc1ccc(C(=O)c2cnc3nc(C)ccn23)cc1,,pIC50 [3]: 5.21; Concentration (Mus musculus [4]): inactive
Cc1cccn2cc(-c3ccc(OCCCN4CCCCC4)cc3)nc12,1%,
CCN(CC)CC(=O)Nc1c(C)cccc1C,1%,
CCCCN(CCCC)CCCOc1ccc(-c2cn3cc(C)ccc3n2)cc1,0.1%,
CCCCN(CCCC)CCCOc1ccc(-c2cn3nccnc3n2)cc1.Cl.Cl,,Inhibition (Canis familiaris): 46%; Concentration (Mus musculus [4]): inactive
CCCCN(CCCC)CCCOc1ccc(-c2cn3cccc(C)c3n2)cc1C,0.1%,
CCCCN(CCCC)CCCOc1ccc(-c2cn3c(n2)sc2ccccc23)cc1.Cl.Cl,1%,Inhibition (Canis familiaris): 15%
CCCCN(CCCC)CCCOc1c(OC)cc(-c2cn3cccc(C)c3n2)cc1OC,0.1%,
Cc1cccn2cc(-c3ccc(OCCCN4CCOCC4)cc3)nc12,> 1%,
CCCCN(CCCC)CCCOc1ccc(-c2nc3c(C)cccn3c2C)cc1,0.1%,
CCCCN(CCCC)CCCOc1ccc(-c2cn3ccc(C)nc3n2)cc1,,Concentration (Mus musculus [4]): inactive

SMILES,Concentration (Mus musculus [1]),further results
CCCN(CCC)CCCOc1ccc(-c2cn3cccc(C)c3n2)cc1,0.1%,
CCCCN(CCCC)CCCOc1ccc(-c2cn3cccc(C)c3n2)cc1,0.01%,
COC(=O)C1=C(C)NC(C)=C(C(=O)OC)C1c1ccccc1[N+](=O)[O-] [NIFEDIPINE],> 1%,Inhibition (Canis familiaris): 95%
CCCCN(CCCC)CCCOc1ccc(C(=O)c2cnc3c(C)cccn23)cc1,0.1%,pIC50 [3]: 6.30
CCCCN(CCCC)CCCOc1ccc(-c2cn3ccsc3n2)cc1,> 1%,
CCCCN(CCCC)CCCOc1ccc(-c2cn3nc(C)sc3n2)cc1,,Concentration (Mus musculus [4]): inactive
CCCCN(CCCC)CCCOc1ccc(-c2cn3c(C)cccc3n2)cc1,0.1%,
CCCCN(CCCC)CCCOc1ccc(-c2cn3cccc(C)c3n2)cc1OC,0.01%,
CCCCN(CCCC)CCCOc1ccc(C(=O)c2cn3ccc(C)cc3n2)cc1,1%,
CCCCN(CCCC)CCCOc1ccc(-c2cn3ccc(C)cc3n2)cc1,0.1%,
CCCCN(CCCC)CCCOc1ccc(C(=O)c2cnc3ncccn23)cc1.Cl.Cl,,Inhibition (Canis familiaris): 44%; Concentration (Mus musculus [4]): inactive
CCCCN(CCCC)CCCOc1ccc(-c2cn3cccnc3n2)cc1,> 1%,inhibition at 68 µM [5]: 43%
CCCCN(CCCC)CCCCOc1ccc(-c2cn3cccc(C)c3n2)cc1,1%,
COc1ccc([C@@H]2Sc3ccccc3N(CCN(C)C)C(=O)[C@@H]2OC(C)=O)cc1 [DILTIAZEM],,Inhibition (Canis familiaris): 96%
CCCCCN(CCCCC)CCCOc1ccc(-c2cn3cccc(C)c3n2)cc1,0.1%,
CCCCN(CCCC)CCCOc1ccc(C(=O)c2cn3cccc(C)c3n2)cc1,1%,pIC50 [3]: 5.22
CCCCN(CCCC)CCCOc1ccc(C(=O)c2cnc3ccc(Br)cn23)cc1,0.1%,
CCCCN(CCCC)CCCOc1ccc(C(=O)c2cn3cc(Br)ccc3n2)cc1.Cl.Cl,1%,Inhibition (Canis familiaris): 50%
Cc1cccn2cc(-c3ccc(OCCCn4ccnc4)cc3)nc12,> 1%,
COc1ccc(CCN(C)CCCC(C#N)(c2ccc(OC)c(OC)c2)C(C)C)cc1OC (stereo not drawn),1%,Inhibition (Canis familiaris): 93%
